Results on one substance are retold here after publication PMC5684143, “New melanocortin-like peptide of E. coli can suppress inflammation via the mammalian melanocortin-1 receptor (MC1R): possible endocrine-like function for microbes of the gut” (NPJ Biofilms and Microbiomes, 2017).

Common to all, as to assay type: cell-based, murine
Assay [1] has as its system RAW 264.7 cells. Kind of assay: Cyclic-AMP production in RAW 264.7 cells. The conditions noted are these: 30 min, 37 °C, 1 mM IBMX, four experiments per peptide, each value from separate experiment(s). The procedure:
RAW 264.7 cells were grown to confluence in culture plates, harvested by classical methods, and then seeded onto 48-well plates (1 × 10^6/ml). Cells were incubated with peptide at 37 °C in Opti-MEM I serum-free medium containing 1 mM 3-isobutyl-1-methylxanthine. At 30 min, cells were lysed in the original wells. The lysates were extracted from the wells, and cyclic-AMP measurements carried out using the Biotrak kit (cyclic-AMP Biotrak Enzymeimmunoassay System, Amersham Biosciences) including a standard cyclic-AMP curve as recommended by the suppliers.[35]
RAW 264.7 cells were incubated with peptides for 30 minutes at 37 degrees. Cell lysates were extracted and c-AMP measurements carried out using a commercial kit [c-AMP biotrack-immunoassay system, Amersham Biosciences] with a c-AMP standard curve as recommended by the suppliers. […] The only experiment with ACTH is shown above. (Effects of LPS at 4 nanograms per ml. or of HMGB1 at 0.1 µg. per ml. on ligand-stimulated c-AMP accumulation were quite modest and inconsistent). […]

In assay [2] the test system is RAW 264.7 cells. As to the kind of experiment: Peptidoglycan (PGN)-induced TNF release by RAW 264.7 cells. The following applies: picomolar range of peptide; waning inhibition at nanomolar concentrations. The procedure:
(§1) Murine macrophage-like RAW 264.7 cells were obtained from American Type Culture Collection, and were grown in Dulbecco’s Modified Eagle’s Medium (DMEM, Life Technologies) containing 10% (vol/vol) heat-inactivated fetal bovine serum (FBS, Hyclone Lab. Inc.), penicillin 100 U/ml, and streptomycin 100 μg/ml (BioWhittaker Inc.). Cells were suspended in medium and incubated in 24-well or 48-well tissue-culture plates overnight in a humidified incubator (37 °C, 5% CO2). Growth medium was removed and replaced by Opti-MEM I serum-free medium (Life Technologies) overnight. In the experiments, cell monolayers were stimulated with HMGB1 or LPS, in the absence or presence of MECO-1 or alpha-MSH; cell-free supernatants were assayed for TNF by ELISA or HMGB1 by western blotting.
(§2) Concentrations of TNF and IL-6 were each determined using a commercially available enzyme-linked immunosorbent assay (ELISA) kit (R&D System Inc.) as previously described.[34] The levels of TNF or IL-6 were calculated with reference to standard curves.
Fig. 2 Cytokine-induced TNF release inhibited by MECO-1. a Lipopolysaccharide (LPS), derived from the cell wall of Gram-negative bacteria, is a TLR4 and TLR2 agonist. RAW 264.7 cells were treated with MECO-1 and LPS simultaneously and incubated overnight. Supernatants were tested for TNF with ELISA. b Poly I:C, synthetic double stranded RNA, is recognized by TLR3. […]

Assay [3] concerns RAW 264.7 cells. As to the kind of experiment: LPS-induced TNF release by RAW 264.7 cells. The following applies: for TNF-accumulated (% of control): peptide 10^-12 M, LPS 10 ng/ml, TNF by ELISA at 6 h, LPS alone set at 100%, mean ± SEM. The procedure: as §1, §2
Fig. 2 Cytokine-induced TNF release inhibited by MECO-1. a Lipopolysaccharide (LPS), derived from the cell wall of Gram-negative bacteria, is a TLR4 and TLR2 agonist. RAW 264.7 cells were treated with MECO-1 and LPS simultaneously and incubated overnight. Supernatants were tested for TNF with ELISA. b Poly I:C, synthetic double stranded RNA, is recognized by TLR3. RAW 264.7 cells were pre-treated with MECO-1 and then stimulated with Poly I:C. Supernatants were tested in ELISA by TNF. c Peptidoglycan (PGN), another TLR2 agonist, is ubiquitous in the cell wall of bacteria. RAW 264.7 cells were pre-treated with MECO-1 and then stimulated with PGN; after overnight stimulation, supernatants were harvested and tested for TNF ELISA. d HMGB-1. Each vertical bar is the mean of three experimental points, using HMGB-1 to induce TNF release. Three sets of three experiments were used for the measurement of inhibition
Fig. 5 a Bioactive analogues of MECO-1. Murine macrophage-like RAW 264.7 cells were incubated with lipopolysaccharide (LPS, 4 ng/ml) in the absence or presence of MECO-1 or BACTN or BACFR, synthetic peptides based on the C-termini of EF-G of Bacteroides thetaiotamicron and Bacteroides fragilis. EFG-2 refers to human mitochondrial EFG-2 (mtEFG2). For Bacteroides thetaiotamicron, we used a 38-mer consisting of residues 681–703 shown in Fig. 4c followed by 704–718 QDKLIKDFEAKQTEE. For Bacteroides fragilis, we used a 33-mer consisting of residues, 681–703 shown in Fig. 4c followed by 704–713 = QDKLIKDFES. At 6 h after stimulation, aliquots of cell-free medium were examined. In other experiments, the synthetic peptide based on human mitochondrial EF-G1 (mtEFG1) gave results indistinguishable from EF-G2 (data not shown). The precise structure of the synthetic peptides is indicated in the text (see section “Results” and Table 1). Shown is a representative experiment.
In general terms: An ELISA detects its analyte on a solid surface through an enzyme-linked reagent.

Values joined by “and” are separate entries in the source; they are usually repeats but may differ in a detail not shown here. Equal entries are not always repeated.

Regarding “alpha-melanocyte-stimulating hormone [alpha-MSH]”, the “peptide concentration at which statistically significant stimulation of cAMP was noted (single experiments)” value in the assay on RAW 264.7 cells [1] was 10^-9 M and 10^-10 M. The “inhibition of PGN-induced TNF release” value with RAW 264.7 cells [2] is given as “Up to 75%”. For the same substance, the “peptide concentration at which attenuation of LPS-induced TNF-alpha release was observed” value in the assay with RAW 264.7 cells [3] (RAW 264.7 cells, overnight incubation, ELISA) is listed as 10^−15 M. The “TNF-accumulated (% of control)” value in the assay with RAW 264.7 cells [3] (agouti 0 pM, RAW 264.7 cells) is 67.05 ± 10.2 % of control; with RAW 264.7 cells [3] (agouti 10 pM, RAW 264.7 cells), 132.6 ± 4.9 % of control; with RAW 264.7 cells [3] (agouti 10^3 pM, RAW 264.7 cells), 138.6 ± 12.4 % of control; in the assay on RAW 264.7 cells [3] (agouti 10^5 pM, RAW 264.7 cells) it was 122.2 ± 4.3 % of control. Besides, the “inhibition of LPS-induced TNF-alpha release (valley)” value in the assay with RAW 264.7 cells [3] (at 10^−11–10^−10 M peptide, attenuation lost above 10^−10 M) is on record as roughly 90%.
